Values of other authors in patent US7091196B2, “Bifunctional heterocyclic compounds and methods of making and using same” (Rib-X Pharmaceuticals, Inc., priority 2002, dated 2006).

Conditions: literature report, Gregory et al. (1989) J. Med. Chem. 32: 1673-1681

Compound: COC(=O)c1nnn(C[C@@H]2CN(c3ccc(C(C)=O)cc3)C(=O)O2)c1C(=O)OC [Compound 6]
- activity as an antibacterial agent: inactive
